Type in all cases: functional, cell-based
The test system of one assay is MCF7. In words: Cytotoxicity against human MCF7 cells after 72 hrs by MTT assay. Conditions: MCF7, 72 h.
A further assay has as its system MGC-803. Nature of the assay: Cytotoxicity against human MGC803 cells after 72 hrs by MTT assay. Conditions: MGC-803, 72 h.
Assay [1] in a line: Cytotoxicity against human EC9706 cells after 72 hrs by MTT assay. The conditions noted are these: EC9706, 72 h.
For another assay, the system named is SMMC-7721. Nature of the assay: Cytotoxicity against human SMMC7721 cells after 72 hrs by MTT assay. The conditions noted are these: SMMC-7721, 72 h.

Bounds are passed on as bounds.

As to `COc1ccc(Cn2cc(CSC(=S)N3CCN(C(N)=O)CC3)nn2)cc1`, the IC50 (in the assay with MCF7; in the assay on MGC-803; in assay [1]; with SMMC-7721) was > 128 µM in each case.
For the compound `CCN(C)C(=O)N1CCN(C(=S)SCc2cn(Cc3ccc(C)cc3)nn2)CC1`, the concentration for half-maximal inhibition (IC50) in the assay on MCF7 was 40.1 µM; in the assay on MGC-803 it was 8.27 µM; in assay [1], 70.6 µM; in the assay on SMMC-7721, > 128 µM.
Take `CCNC(=O)N1CCN(C(=S)SCc2cn(Cc3ccc(F)cc3)nn2)CC1`: the concentration for half-maximal inhibition (IC50) is 3.66 µM in the assay on MCF7, 2.17 µM in the assay with MGC-803, 27.8 µM in assay [1] and 44.4 µM in the assay on SMMC-7721.
On to `O=C(NC1CCCCC1)N1CCN(C(=S)SCc2cn(Cc3ccccc3F)nn2)CC1`, for which the IC50 was 85 µM in the assay on MCF7, 36.5 µM in the assay with MGC-803, 84.9 µM in assay [1] and > 128 µM in the assay with SMMC-7721.
Take `NC(=O)N1CCN(C(=S)SCc2cn(Cc3ccc(Cl)cc3)nn2)CC1`: the IC50 (in the assay on MCF7; in the assay with MGC-803; in assay [1]; in the assay on SMMC-7721) was > 128 µM each time.
Turning to `CCN(C)C(=O)N1CCN(C(=S)SCc2cn(Cc3ccccc3F)nn2)CC1`, the IC50 with MCF7 was 7.21 µM; in the assay on MGC-803 it was 5.86 µM; in assay [1], 15.6 µM; with SMMC-7721 it was 19.7 µM.
For `CCNC(=O)N1CCN(C(=S)SCc2cn(Cc3ccc(C)cc3)nn2)CC1`, the IC50 was > 128 µM in the assay with MCF7, 19.8 µM in the assay on MGC-803, > 128 µM in assay [1] and > 128 µM in the assay on SMMC-7721.
With `NC(=O)N1CCN(C(=S)SCc2cn(Cc3ccccc3F)nn2)CC1`, the IC50 with MCF7 is > 128 µM; in the assay on MGC-803, 11.3 µM; in assay [1], 43.1 µM; in the assay with SMMC-7721, > 128 µM.
With `CCNC(=O)N1CCN(C(=S)SCc2cn(Cc3ccc(OC)cc3)nn2)CC1`, the 50% inhibitory concentration (IC50) was 97.6 µM in the assay on MCF7, > 128 µM in the assay with MGC-803, > 128 µM in assay [1] and > 128 µM in the assay on SMMC-7721.
For the compound `NC(=O)N1CCN(C(=S)SCc2cn(Cc3ccc(F)cc3)nn2)CC1`, the IC50 in the assay on MCF7 was 22.1 µM; in the assay with MGC-803, 9.33 µM; in assay [1] it was 62.7 µM; in the assay with SMMC-7721 it was > 128 µM.
With `CC(C)(C)NC(=O)N1CCN(C(=S)SCc2cn(Cc3ccccc3F)nn2)CC1`, the IC50 in the assay on MCF7 was 18.8 µM; in the assay with MGC-803 it was 40.7 µM; in assay [1], 87.8 µM; in the assay with SMMC-7721, > 128 µM.
With `CCN(C)C(=O)N1CCN(C(=S)SCc2cn(Cc3ccc(F)cc3)nn2)CC1`, the IC50 with MCF7 came to 2.15 µM; in the assay with MGC-803 it was 1.55 µM; in assay [1], 14.3 µM; with SMMC-7721, 23.7 µM.
For `COc1cc(Cn2cc(CSC(=S)N3CCN(C(=O)NC(C)C)CC3)nn2)cc(OC)c1OC` the same measures were > 128 µM, > 128 µM, > 128 µM and > 128 µM.
On to `CCNC(=O)N1CCN(C(=S)SCc2cn(Cc3ccccc3F)nn2)CC1`, for which the IC50 in the assay with MCF7 is 5.76 µM; with MGC-803 it was 2.83 µM; in assay [1], 23.7 µM; in the assay with SMMC-7721, > 128 µM.
Regarding `O=c1[nH]cc(F)c(=O)[nH]1` [FLUOROURACIL], the IC50 with MCF7 was found to be 7.33 µM; with MGC-803, 7.14 µM; in assay [1], 0.32 µM; in the assay with SMMC-7721, 26.7 µM.
In the case of `CCNC(=O)N1CCN(C(=S)SCc2cn(Cc3ccc(Cl)cc3)nn2)CC1`, the IC50 in the assay with MCF7 is > 128 µM; in the assay with MGC-803, 35.4 µM; in assay [1] it was > 128 µM; with SMMC-7721, > 128 µM.
Consider `CC(C)NC(=O)N1CCN(C(=S)SCc2cn(Cc3ccc(Cl)cc3)nn2)CC1`, for which the IC50 with MCF7 was > 128 µM; with MGC-803, 19.9 µM; in assay [1], 25.6 µM; in the assay with SMMC-7721, > 128 µM.
In the case of `O=C(NCc1ccccc1)N1CCN(C(=S)SCc2cn(Cc3ccccc3F)nn2)CC1`, the IC50 in the assay on MCF7 is 38.1 µM; with MGC-803, 13.3 µM; in assay [1], 38.1 µM; in the assay on SMMC-7721, > 128 µM.
With `CCN(C)C(=O)N1CCN(C(=S)SCc2cn(Cc3ccc(Cl)cc3)nn2)CC1`, the IC50 in the assay on MCF7 was 14.7 µM; in the assay with MGC-803, 4.32 µM; in assay [1], 17.7 µM; with SMMC-7721, 38.2 µM.
`CCN(C)C(=O)N1CCN(C(=S)SCc2cn(Cc3ccc(OC)cc3)nn2)CC1`: the IC50 with MCF7 is 21.4 µM; in the assay on MGC-803, 87.9 µM; in assay [1], > 128 µM; with SMMC-7721, > 128 µM.
Turning to `CCN(C)C(=O)N1CCN(C(=S)SCc2cn(Cc3cc(OC)c(OC)c(OC)c3)nn2)CC1`, the IC50 is 68.5 µM in the assay on MCF7, 85.7 µM with MGC-803, > 128 µM in assay [1] and > 128 µM in the assay with SMMC-7721.
In the case of `CCNC(=O)N1CCN(C(=S)SCc2cn(Cc3cc(OC)c(OC)c(OC)c3)nn2)CC1`, the IC50 in the assay with MCF7 is > 128 µM; in the assay with MGC-803, 101 µM; in assay [1], > 128 µM; with SMMC-7721, > 128 µM.
With `COc1ccc(Cn2cc(CSC(=S)N3CCN(C(=O)NC(C)C)CC3)nn2)cc1`, the IC50 in the assay on MCF7 is 19.6 µM; in the assay with MGC-803 it was 99.2 µM; in assay [1], > 128 µM; with SMMC-7721 it was > 128 µM.
Take `Cc1ccc(Cn2cc(CSC(=S)N3CCN(C(N)=O)CC3)nn2)cc1`: the IC50 in the assay on MCF7 is > 128 µM; in the assay on MGC-803, 29.9 µM; in assay [1] it was > 128 µM; in the assay with SMMC-7721, > 128 µM.
Take `O=C(NC1CCCCC1)N1CCN(C(=S)SCc2cn(Cc3ccc(F)cc3)nn2)CC1`: the IC50 (in the assay with MCF7; with MGC-803; in assay [1]; in the assay on SMMC-7721) was > 128 µM each time.
Take `Cc1ccc(Cn2cc(CSC(=S)N3CCN(C(=O)NC(C)C)CC3)nn2)cc1`: the IC50 with MCF7 is 4.63 µM; in the assay with MGC-803, 16.6 µM; in assay [1] it was > 128 µM; in the assay with SMMC-7721, > 128 µM.
Consider `COc1cc(Cn2cc(CSC(=S)N3CCN(C(N)=O)CC3)nn2)cc(OC)c1OC`, for which the IC50 (in the assay on MCF7; with MGC-803; in assay [1]; in the assay with SMMC-7721) was > 128 µM throughout.

The values above are taken from ChEMBL document CHEMBL2390884, “Design, synthesis and antiproliferative activity studies of novel 1,2,3-triazole-dithiocarbamate-urea hybrids” (Eur J Med Chem, 2013).
